Read-outs that look alike come from different tables or passages of the source.

IC50 data for 20 molecules are collected here from US9227971B2, “Pyrazolo[1,5-a]pyrimidine compounds as mTOR inhibitors” (Merck Sharp & Dohme Corp., priority 2010, dated 2016).

Assay [1] has as its target human mTOR enzyme (Homo sapiens, UniProt P42345). As to the kind of experiment: mTOR kinase assay (HTRF mTOR enzyme assay). The settings on record: 5 μM ATP, 0.2 μM GST-S6K, one hour at 30° C. Format: biochemical. As to the method:
An HTRF mTOR enzyme assay was developed to assess the compounds' inhibitory activity. The mTOR assay buffer contained 10 mM Hepes (pH 7.4), 50 mM NaCl, 100 μg/ml BSA, 50 mM B-glycerophosphate, 10 mM MnCl2 and 0.5 mM DTT. […] 20 ng of human mTOR enzyme (<5% pure was preincubated with the compound for 10 minutes followed by the addition of 5 μM ATP and 0.2 μM GST-S6K (Zhang et al., Protein Expression and Purification 46, pp 414-420 (2006)). The reaction was incubated for one hour at 30° C. Anti phospho p70-S6K(Thr389) (˜1.7 ng/well, anti-phospho-p70S6K-cryptate (Pho-p70S6-Kin-K cat#64CUSKAY, from Cisbio)) and anti GST-XL665 (1:1 Ratio with the substrate GST-S6K, anti GST-XL665, cat#61 GSTXLB) Cisbio) were added after the reaction was stopped. The plates were read (PHERAstar, BMG) at least 2 hours after adding the anti phospho p70-S6K and the anti GST-XL665.
Dose-response curves were plotted from the inhibition data generated, each in duplicate, from 8 point serial dilutions of inhibitory compounds. Concentration of compound was plotted against the HTRF em665/em590 ratio signal. To generate IC50 values, the dose-response curves were fitted to a standard sigmoidal curve and IC50 values were derived by nonlinear regression analysis.
A general note: Time-resolved FRET reads energy transfer from a long-lived donor to a nearby acceptor.

Assay [2] relates to phosphorylated AKT Ser473 (pAKT S473), mTORC2 activity, PC3 cells. As to the kind of experiment: mTOR target engagement assay, immunofluorescent cell-based, pAKT S473 readout (mTORC2 activity). The settings on record: Homo sapiens. The method, boiled down: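 After blocking, cells were stained overnight at 4 °C with anti-pAKT S473 antibody, then a fluorescent secondary; inhibition was read as reduced fluorescence intensity.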

Assay [3] concerns phosphorylated 4E-BP1 Thr37/46 (p4E-BP1 Thr37/46), mTORC1 activity, PC3 cells. Nature of the assay: mTOR target engagement assay, immunofluorescent cell-based, p4E-BP1 Thr37/46 readout (mTORC1 activity). The conditions noted are these: Homo sapiens, read-out: p4E-BP1 Thr37/46 IC50. A digest of the protocol: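 Read-out is fluorescence intensity of immunostained p4E-BP1 Thr37/46 in fixed PC3 cells, fitted to a logistic curve for IC50 with DMSO-only wells as top. Cells had been exposed to serial compound dilutions for ninety minutes at 37° C in 5% FBS medium with 0.25% DMSO.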

Setting [4] is: PC-3, PC3 cells, compound treatment ninety minutes at 37° C.

Sequence of human mTOR enzyme (P42345 1360-2549 limits assumed): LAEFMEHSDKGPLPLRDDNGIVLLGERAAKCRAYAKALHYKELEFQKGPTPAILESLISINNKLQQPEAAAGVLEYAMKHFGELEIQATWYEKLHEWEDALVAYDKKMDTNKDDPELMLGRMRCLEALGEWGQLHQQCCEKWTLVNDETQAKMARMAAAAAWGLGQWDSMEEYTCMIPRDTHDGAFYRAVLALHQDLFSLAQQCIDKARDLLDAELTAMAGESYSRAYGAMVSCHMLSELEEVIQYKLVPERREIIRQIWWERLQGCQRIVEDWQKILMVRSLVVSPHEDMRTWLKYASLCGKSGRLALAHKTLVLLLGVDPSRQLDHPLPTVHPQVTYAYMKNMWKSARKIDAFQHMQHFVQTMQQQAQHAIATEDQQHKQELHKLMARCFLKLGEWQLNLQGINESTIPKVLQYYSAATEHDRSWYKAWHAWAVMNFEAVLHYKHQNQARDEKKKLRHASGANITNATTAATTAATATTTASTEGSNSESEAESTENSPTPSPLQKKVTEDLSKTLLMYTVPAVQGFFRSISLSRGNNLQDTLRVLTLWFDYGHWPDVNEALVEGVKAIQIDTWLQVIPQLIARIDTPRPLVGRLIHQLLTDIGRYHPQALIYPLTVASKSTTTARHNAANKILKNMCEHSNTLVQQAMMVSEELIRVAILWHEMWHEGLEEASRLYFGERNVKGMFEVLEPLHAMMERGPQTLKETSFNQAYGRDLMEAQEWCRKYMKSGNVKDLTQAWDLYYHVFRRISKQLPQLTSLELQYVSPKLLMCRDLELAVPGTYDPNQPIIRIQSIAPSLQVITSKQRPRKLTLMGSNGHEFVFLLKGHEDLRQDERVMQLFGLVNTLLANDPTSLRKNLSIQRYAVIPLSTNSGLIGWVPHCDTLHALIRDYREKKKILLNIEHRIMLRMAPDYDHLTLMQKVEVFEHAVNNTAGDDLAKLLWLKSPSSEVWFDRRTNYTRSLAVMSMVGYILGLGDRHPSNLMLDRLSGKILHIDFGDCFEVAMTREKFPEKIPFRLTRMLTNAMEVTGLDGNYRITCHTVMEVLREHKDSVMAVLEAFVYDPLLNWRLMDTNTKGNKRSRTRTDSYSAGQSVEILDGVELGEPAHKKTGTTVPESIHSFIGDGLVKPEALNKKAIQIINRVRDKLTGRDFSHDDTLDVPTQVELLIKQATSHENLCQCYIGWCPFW

`Nc1cc([C@@H]2C[C@H]3CC[C@@H](C2)N3)nc2c(-c3cc[nH]c(=O)c3)cnn12` [Example 8B, 4-{7-Amino-5-[(3-exo)-8-azabicyclo[3.2.1]oct-3-yl]pyrazolo[1,5-a]pyrimidin-3-yl}pyridin-2(1H)-one] came in with an IC50 in assay [1] of 489 nM. In assay [1], `CC(=O)c1c(N2C3CCC2CN(C(=O)[C@@H](C)O)C3)nc2c(-c3ccc(-c4ccccc4)nc3)cnn2c1N` [Compound 50] returned an IC50 of 10 to 25 nM. In turn, `Nc1c(F)c([C@@H]2C[C@H]3CC[C@@H](C2)N3C(=O)CO)nc2c(-c3ccc(-c4ncc[nH]4)nc3)cnn12` [Example 8A, 1-[(3-Exo)-3-{7-amino-6-fluoro-3-[6-(1H-imidazol-2-yl)pyridin-3-yl]pyrazolo[1,5-a]pyrimidin-5-yl}-8-azabicyclo[3.2.1]oct-8-yl]-2-hydroxyethanone] yielded an IC50 in assay [1] of 2 nM. In assay [1], `CC(=O)c1c(N2CC3CCC2CN3C(=O)c2nnc[nH]2)nc2c(-c3ccc(-c4ccccc4)nc3)cnn2c1N` (stereo not shown) [Compound 48] registered an IC50 of 1 to 10 nM. On the same count and under the same terms, to `CC(=O)c1c(N2C3CCC2CN(C(=O)CO)C3)nc2c(-c3ccc(-c4ccccc4)nc3)cnn2c1N` [Compound 49] belongs 1 to 10 nM; to `CC(=O)c1c(N2CC3CCC2CN3C(=O)[C@@H](C)O)nc2c(-c3ccc(-c4ccccc4)nc3)cnn2c1N` (stereo partly shown) [Compound 47], 10 to 25 nM. Take `CC(=O)c1c([C@@H]2C[C@H]3CC[C@@H](C2)N3C(=O)c2nnc[nH]2)nc2c(-c3cnc4ccc(CO)cc4c3)cnn2c1N` [Compound 1.1.126, 1-(5-((1R,3s,5S)-8-(4H-1,2,4-triazole-3-carbonyl)-8-azabicyclo[3.2.1]octan-3-yl)-7-amino-3-(6-(hydroxymethyl)quinolin-3-yl)pyrazolo[1,5-a]pyrimidin-6-yl)ethanone]: the IC50 in assay [2] (setting [4]) and in assay [3] (setting [4]) was 1000 to 10000 nM throughout. `COc1ccc(-c2ccc(-c3cnn4c(N)c(C5CC5)c([C@@H]5C[C@H]6CC[C@@H](C5)N6C(=O)c5nnc[nH]5)nc34)cn2)cc1F` [Compound 4.9, ((1R,3s,5S)-3-(7-amino-6-cyclopropyl-3-(6-(3-fluoro-4-methoxyphenyl)pyridin-3-yl)pyrazolo[1,5-a]pyrimidin-5-yl)-8-azabicyclo[3.2.1]octan-8-yl)(4H-1,2,4-triazol-3-yl)methanone]: the IC50 was in the range of 1 to 100 nM in assay [2] (setting [4]) and 100 to 1000 nM in assay [3] (setting [4]). `Cc1csc(-c2ccc(-c3cnn4c(N)c(S(C)(=O)=O)c([C@@H]5C[C@H]6CC[C@@H](C5)N6C(=O)c5nnc[nH]5)nc34)cn2)n1` [Compound 3.192, ((1R,3s,5S)-3-(7-amino-6-(methylsulfonyl)-3-(6-(4-methylthiazol-2-yl)pyridin-3-yl)pyrazolo[1,5-a]pyrimidin-5-yl)-8-azabicyclo[3.2.1]octan-8-yl)(4H-1,2,4-triazol-3-yl)methanone]: the IC50 in assay [2] (PC-3, Table 3-1, PC3 cells) lay in the range of 100 to 1000 nM; in assay [3] (PC-3, Table 3-1, PC3 cells), 100 to 1000 nM. As to `CNC(=O)Nc1ccc(-c2cnn3c(N)cc([C@@H]4C[C@H]5CC[C@@H](C4)N5C(=O)CO)nc23)cc1` [Compound 8.82, 1-(4-(7-amino-5-((1R,3s,5S)-8-(2-hydroxyacetyl)-8-azabicyclo[3.2.1]octan-3-yl)pyrazolo[1,5-a]pyrimidin-3-yl)phenyl)-3-methylurea], the IC50 was > 10000 nM in assay [2] (PC-3, PC3 cells) and > 10000 nM in assay [3] (PC-3, PC3 cells). `CC(=O)c1c([C@@H]2C[C@H]3CC[C@@H](C2)N3C(=O)c2nnc[nH]2)nc2c(-c3ccc(C(C)O)nc3)cnn2c1N` (stereo partly drawn) [Compound 7.4, 1-(5-((1R,3s,5S)-8-(4H-1,2,4-triazole-3-carbonyl)-8-azabicyclo[3.2.1]octan-3-yl)-7-amino-3-(6-(1-hydroxyethyl)pyridin-3-yl)pyrazolo[1,5-a]pyrimidin-6-yl)ethanone]: the IC50 in assay [2] (setting [4]) and in assay [3] (setting [4]) was 1 to 100 nM in each case.

Consider `CC(=O)c1c([C@@H]2C[C@H]3CC[C@@H](C2)N3C(=O)c2nnc[nH]2)nc2c(-c3ccc([C@H](O)C(F)(F)F)nc3)cnn2c1N` [Compound 7.74, 1-(5-((1R,3s,5S)-8-(4H-1,2,4-triazole-3-carbonyl)-8-azabicyclo[3.2.1]octan-3-yl)-7-amino-3-(6-((S)-2,2,2-trifluoro-1-hydroxyethyl)pyridin-3-yl)pyrazolo[1,5-a]pyrimidin-6-yl)ethanone], for which the IC50 lay within 100 to 1000 nM in assay [2] (PC-3, PC3 cells) and 100 to 1000 nM in assay [3] (PC-3, PC3 cells).

Take `CCn1ccc(-c2ccc(-c3cnn4c(N)c(C(C)=O)c([C@@H]5C[C@H]6CC[C@@H](C5)N6C(=O)CO)nc34)cn2)n1` [Compound 1.1.137, 1-((1R,3s,5S)-3-(6-acetyl-7-amino-3-(6-(1-ethyl-1H-pyrazol-3-yl)pyridin-3-yl)pyrazolo[1,5-a]pyrimidin-5-yl)-8-azabicyclo[3.2.1]octan-8-yl)-2-hydroxyethanone]: the IC50 in assay [2] (setting [4]) was in the range of 1 to 100 nM; in assay [3] (setting [4]) it was 100 to 1000 nM. For `CC(=O)c1c([C@@H]2C[C@H]3CC[C@@H](C2)N3C(=O)CO)nc2c(-c3ccc(-c4ccn(C)n4)nc3)cnn2c1N` [Compound 1.1.60, 1-((1R,3s,5S)-3-(6-acetyl-7-amino-3-(6-(1-methyl-1H-pyrazol-3-yl)pyridin-3-yl)pyrazolo[1,5-a]pyrimidin-5-yl)-8-azabicyclo[3.2.1]octan-8-yl)-2-hydroxyethanone] the same measures were 100 to 1000 nM and 100 to 1000 nM. `CS(=O)(=O)c1c([C@@H]2C[C@H]3CC[C@@H](C2)N3C(=O)c2ccn[nH]2)nc2c(-c3ccc(-c4ccccc4)nc3)cnn2c1N` [Compound 3.74, ((1R,3s,5S)-3-(7-amino-6-(methylsulfonyl)-3-(6-phenylpyridin-3-yl)pyrazolo[1,5-a]pyrimidin-5-yl)-8-azabicyclo[3.2.1]octan-8-yl)(1H-pyrazol-5-yl)methanone]: the IC50 lay within 1 to 100 nM in assay [2] (PC-3, Table 3-1, PC3 cells) and 1 to 100 nM in assay [3] (PC-3, Table 3-1, PC3 cells). As for `CC(=O)c1c([C@@H]2C[C@H]3CC[C@@H](C2)N3C(=O)CO)nc2c(-c3ccc(C(C)(C)O)nc3)cnn2c1N` [Compound 7.8, 1-((1R,3s,5S)-3-(6-acetyl-7-amino-3-(6-(2-hydroxypropan-2-yl)pyridin-3-yl)pyrazolo[1,5-a]pyrimidin-5-yl)-8-azabicyclo[3.2.1]octan-8-yl)-2-hydroxyethanone], the IC50 in assay [2] (setting [4]) and in assay [3] (setting [4]) was 100 to 1000 nM in each case. As for `Nc1c(C2CC2)c([C@@H]2C[C@H]3CC[C@@H](C2)N3C(=O)CO)nc2c(-c3ccc(-c4ncc[nH]4)nc3)cnn12` [Compound 6.1, 1-((1R,3s,5S)-3-(3-(6-(1H-imidazol-2-yl)pyridin-3-yl)-7-amino-6-cyclopropylpyrazolo [1,5-a]pyrimidin-5-yl)-8-azabicyclo[3.2.1]octan-8-yl)-2-hydroxyethanone], the IC50 in assay [2] (PC-3, Table 6-1, PC3 cells) fell in the range of 1 to 100 nM; in assay [3] (PC-3, Table 6-1, PC3 cells), 1 to 100 nM. Consider `CC(=O)c1c([C@@H]2C[C@H]3CC[C@@H](C2)N3C(=O)c2nnc[nH]2)nc2c(-c3ccc(-c4ccn(CF)n4)nc3)cnn2c1N` [Compound 1.1.86, 1-(5-((1R,3s,5S)-8-(4H-1,2,4-triazole-3-carbonyl)-8-azabicyclo[3.2.1]octan-3-yl)-7-amino-3-(6-(1-(fluoromethyl)-1H-pyrazol-3-yl)pyridin-3-yl)pyrazolo[1,5-a]pyrimidin-6-yl)ethanone], for which the IC50 in assay [2] (setting [4]) and in assay [3] (setting [4]) was 1 to 100 nM throughout. For `CS(=O)(=O)c1c([C@@H]2C[C@H]3CC[C@@H](C2)N3C(=O)c2ccc(O)cn2)nc2c(-c3ccc(-c4ccccc4)nc3)cnn2c1N` [Compound 3.16, ((1R,3s,5S)-3-(7-amino-6-(methylsulfonyl)-3-(6-phenylpyridin-3-yl)pyrazolo[1,5-a]pyrimidin-5-yl)-8-azabicyclo[3.2.1]octan-8-yl)(5-hydroxypyridin-2-yl)methanone], the IC50 in assay [2] (PC-3, Table 3-1, PC3 cells) was in the range of 1 to 100 nM; in assay [3] (PC-3, Table 3-1, PC3 cells) it was 100 to 1000 nM. For `CC(=O)c1c([C@@H]2C[C@H]3CC[C@@H](C2)N3C(=O)c2cc[nH]c2)nc2c(-c3ccc(C(C)(C)O)nc3)cnn2c1N` [Compound 7.16, 1-(5-((1R,3s,5S)-8-(1H-pyrrole-3-carbonyl)-8-azabicyclo[3.2.1]octan-3-yl)-7-amino-3-(6-(2-hydroxypropan-2-yl)pyridin-3-yl)pyrazolo[1,5-a]pyrimidin-6-yl)ethanone], the IC50 is 1 to 100 nM in assay [2] (setting [4]) and 100 to 1000 nM in assay [3] (setting [4]).
